Assay [1] addresses T1, Trypsin (Sus scrofa, UniProt P00761).
T1 construct: purchased Sigma Aldrich
As to the kind of experiment: Determination of IC50 for various proteases (chromogenic substrate, pNA release at 405 nm): trypsin. In kind it is biochemical. The following applies: hog trypsin 2 nM, substrate S-2222 0.5 mM; Mean ± SD. Here is the method: (§1) A 6 mM solution of the test compound in DMSO was prepared. In a V-bottom micro plate the 6 mM compound solution was diluted 6 times in DMSO to obtain a concentration row with the following concentrations: 6 mM, 1.8 mM, 540 μM, 162 μM, 48.8 μM, 14.4 μM, and 4 μM. From this DMSO master plate 1:20 dilutions in 10 mM MOPS pH 8.3 were prepared to obtain solutions of 300, 90, 27, 8.1, 2.44, 0.72 and 0.22 μM in MOPS buffer and 5% DMSO.
(§2) 100 μl of this solution were pipetted into a flat bottom 96 well microplate and placed into a Tecan infinite 200 plate reader. Before measurement, 50 μl of protease solution and, subsequently 50 μl substrate solution were added by the machine. The liberation of free para nitroanilide was detected at 405 nm. The protease solution was freshly prepared by diluting to the desired concentration from a stock solution in 60 mM MOPS; 600 mM NaCl; 20 mM CaCl2; 10% DMSO; 0.4% PEG 6000 pH 8.3. The substrate solution was prepared by dissolving the solid substrate in an adequate amount of water to get the desired concentrations. The used protease and substrate solutions are given below:
(§3) All enzymes except trypsin were from human origin (American diagnostic). Trypsin was hog trypsin (Sigma Aldrich). Substrates were purchased from Chromogenix. […]

Assay [2] has as its target T2, uPA (Homo sapiens, UniProt P00749).
T2 construct: purchased American diagnostic
As to the kind of experiment: Determination of IC50 for various proteases: uPA. In kind it is biochemical. The following applies: uPA 40 nM, substrate S-2288 0.5 mM; Mean ± SD. As to the method:
as §1, §2, §3

Assay [3] has as its target T3, Kallikrein (Homo sapiens, UniProt P03952).
T3 construct: purchased American diagnostic
As to the kind of experiment: Determination of IC50 for various proteases: kallikrein. In kind it is biochemical. Particulars: kallikrein 2 nM, substrate S-2288 0.5 mM; Mean ± SD. As to the method:
as §1, §2, §3

Assay [4] deals with T4, tPA (2 chain) (Homo sapiens, UniProt P00750).
T4 construct: tPA (2 chain); purchased American diagnostic
T4 sequence (P00750 311-562 limits assumed): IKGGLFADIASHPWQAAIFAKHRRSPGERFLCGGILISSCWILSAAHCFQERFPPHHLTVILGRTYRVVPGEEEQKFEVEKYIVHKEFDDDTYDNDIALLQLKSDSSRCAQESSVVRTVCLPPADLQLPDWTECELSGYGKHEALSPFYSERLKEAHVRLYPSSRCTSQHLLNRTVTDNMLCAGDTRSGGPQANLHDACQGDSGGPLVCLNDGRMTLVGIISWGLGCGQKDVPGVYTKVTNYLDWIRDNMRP
T4 sequence (P00750 36-310 partner limits assumed): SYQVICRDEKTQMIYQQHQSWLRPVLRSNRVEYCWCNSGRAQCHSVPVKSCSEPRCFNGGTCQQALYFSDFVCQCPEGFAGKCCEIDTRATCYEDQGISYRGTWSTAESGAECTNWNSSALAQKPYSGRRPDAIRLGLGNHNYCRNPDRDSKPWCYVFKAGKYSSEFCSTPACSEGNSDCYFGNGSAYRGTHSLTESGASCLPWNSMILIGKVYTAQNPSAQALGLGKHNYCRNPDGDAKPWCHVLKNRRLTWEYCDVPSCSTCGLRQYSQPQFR
As to the kind of experiment: Determination of IC50 for various proteases: tPA. In kind it is biochemical. The following applies: tPA (2 chain) 40 nM, substrate S-2288 0.5 mM; Mean ± SD. Here is the method:
as §1, §2, §3

For assay [5], the target named is T5, Thrombin (Homo sapiens, UniProt P00734).
T5 construct: purchased American diagnostic
As to the kind of experiment: Determination of IC50 for various proteases: thrombin. In kind it is biochemical. Particulars: thrombin 6 nM, substrate S-2266 0.5 mM; Mean ± SD. Here is the method: as §1, §2, §3

The subject of assay [6] is C-terminal agrin fragment (CAF). The experiment in a line: Analysis of serum CAF levels by western blotting in treated mice. The following applies: mouse serum pools, 25 mg/kg x 3 s.c., 5 h after last injection, western blot normalized to vehicle. In kind it is in vivo, C57/BL6 mice. Here is the method: Adult (P50) C57/BL6 mice from Charles River were used for the experiments. All animal experiments are performed in accordance with international guidelines for proper conduct of animal experiment under jurisdiction of the Swiss law (Permit number ZH-18/2008). For every mouse in the experiment the well-being during the interventions is documented in a score sheet.
Three adult mice were treated with 2.5 ml/kg of a 10 mg/ml solution of the compound of Example 1 in 100% DMSO. This corresponds to a dose of 25 mg/kg active ingredient. As vehicle control, 3 mice were treated with 2.5 ml/kg of 100% DMSO. Each mouse received three subcutaneous injections. Between dose 1 and dose 2 there were 8 h, between dose 2 and dose 3 16 h. 5 h after the last injection the mice were euthanatized with CO2.
Before the first injection the mice were weighted and ˜100 μl of blood was collected from the lateral tail vein. Serum was prepared with centrifugation of blood samples in Microvette 500 Z-Gel tubes (10,000 g, 20° C., 5 min). […]
After staining for CAF the membrane was washed thoroughly and reused for a staining for endogenous mouse antibodies that served as loading control. […] After imaging with a Stella imaging system (Raytest) the intensity of the CAF bands was measured with AIDA picture analysis software (Raytest) and normalized to the loading levels determined from mouse antibody light chains. […]
Background: A western blot detects proteins with antibodies after separation by electrophoresis.

pIC50: −log10 of the molar value.

What is called pIC50 is the negative decadic logarithm of the IC50, by convention in mol/L. Higher therefore signals a low IC50.

T1 sequence (P00761 9-231): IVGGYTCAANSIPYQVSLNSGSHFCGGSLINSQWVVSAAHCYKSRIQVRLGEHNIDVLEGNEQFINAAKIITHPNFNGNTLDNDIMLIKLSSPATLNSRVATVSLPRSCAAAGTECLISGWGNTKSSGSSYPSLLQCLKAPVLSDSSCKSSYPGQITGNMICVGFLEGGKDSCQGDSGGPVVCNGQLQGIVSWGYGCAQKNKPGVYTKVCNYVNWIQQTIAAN
T3 sequence (P03952 391-638 limits assumed): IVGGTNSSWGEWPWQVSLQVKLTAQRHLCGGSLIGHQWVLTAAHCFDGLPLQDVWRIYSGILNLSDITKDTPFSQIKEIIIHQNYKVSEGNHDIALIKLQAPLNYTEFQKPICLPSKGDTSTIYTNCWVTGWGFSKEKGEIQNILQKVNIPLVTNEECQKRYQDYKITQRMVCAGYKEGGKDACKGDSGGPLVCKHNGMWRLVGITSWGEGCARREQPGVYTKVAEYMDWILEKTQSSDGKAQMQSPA
T3 sequence (P03952 20-390 limits assumed): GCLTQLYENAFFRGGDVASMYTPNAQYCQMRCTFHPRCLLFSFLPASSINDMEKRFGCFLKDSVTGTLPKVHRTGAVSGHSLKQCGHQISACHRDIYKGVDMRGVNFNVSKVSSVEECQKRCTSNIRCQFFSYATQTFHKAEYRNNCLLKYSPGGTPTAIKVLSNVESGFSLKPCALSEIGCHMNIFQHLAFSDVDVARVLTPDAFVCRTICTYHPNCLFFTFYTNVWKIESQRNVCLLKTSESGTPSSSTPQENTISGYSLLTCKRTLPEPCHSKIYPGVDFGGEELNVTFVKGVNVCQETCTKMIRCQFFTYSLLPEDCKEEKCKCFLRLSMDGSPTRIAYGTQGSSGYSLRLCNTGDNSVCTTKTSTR

For `O=C(Nc1ccc(C(=O)Nc2ccc(Cl)cc2)c(O)c1)c1ccc(-c2nc3cc(Cl)c(Cl)cc3[nH]2)cc1` [Example 1, N-(4-Chlorophenyl)-4-(4-(5,6-dichloro-1H-benzo[d]imidazol-2-yl)benzamido)-2-hydroxybenzamide], the pIC50 in assay [1], in assay [2], in assay [3], in assay [4] and in assay [5] was less than 3.82 each time. Besides, the “Average CAF levels” value in assay [6] is listed as 66.6 % of vehicle.

Source of the values: US20130245064A1, “NOVEL NEUROTRYPSIN INHIBITORS” (priority 2010, published 2013).
